# Experimental data: patent US9737502B2, “Calebin A for hepatic steatosis” (SAMI LABS LIMITED, priority 2011, dated 2017)
# Marks after values point to notes of the source that are not given here.
# How the values were obtained:
# [1] = tested on: IL-6; experiment: Serum IL-6 in LPS-injected mice after 6 days oral treatment (ELISA); assay type: in vivo, Swiss albino mice; details: graded doses, then LPS 1 mg/kg i.v., serum 90 min after LPS
# Method: The present inventors also adduce study data on the ability of Calebin A to reduce expression of Extracellular TNF-α, IL-1 beta [FIG. 6] and IL-6 [FIG. 7] in serum from treated mice (in-vivo models). Swiss albino male mice aged 6-8 weeks were maintained at 22±2° C. under 12/12 h light dark cycle. Mice received oral treatment of test drugs at graded doses (w/v) for 6 days, followed by intravenous injection of 1 mg/kg of LPS according to the method described by Brieva A, Guerrero A, Alonso-Lebrero J L and Pivel J P. 2001. Immunoferon, a glycoconjugate of natural origin, inhibits LPS-induced TNF-α production and inflammatory responses. International Immunopharmacology 1, 1979-1987. Six mice were employed in each group and experiments were performed in triplicates. TNF-α, IL-1 beta and IL-6 production was evaluated by a commercial ELISA kits (R&D Systems) in serum from treated mice, 90 min after LPS injection. Rolipram at 30 mg/kg was used as standard drug.
# [2] = Study 2: body weight and liver weight in high fat diet induced obese mice; assay type: in vivo, C57 mice; details: for LIVER WEIGHT: male group, Day 57, High fat diet Control 1.60 ± 0.35
# Text: The animals were fed ad libitum with AMRUT Laboratory Animal Feed manufactured by Pranav Agro Industries Limited, Sangli, Maharastra throughout the acclimatization. Open Source Diet D12450B diet (with 10 kcal % Fat) and Open Source Diet D12492 High fat diet (with 60 kcal % Fat) manufactured by Research Diet Inc, USA procured from Indus Marketing, Hyderabad, Andhra Pradesh, INDIA was used for induction of obesity and the main study.
# The animals were divided into 5 groups viz., Group 1, 2, 3, 4 and 5 consisting of 10 animals (5 male and 5 female) each.
# The G1 Control group animals were fed with normal control diet feed D12450B containing 10 kcal % fat and the G2 to G5 group animals were fed with high fat diet feed D12492 containing 60 kcal % fat during the induction of obesity and during main study.
# The main study was started after the induction of obesity. The 3 doses of Calebin A was administered to animals from Day 29 daily consecutively for a period of 28 days. The feeding of diets continued in the main study in a similar way as performed in induction of obesity. The G1 Control and G2 High fat diet control group animals were administered with 0.5% CMC (Carboxy Methyl Cellulose) while other group animals received test item from Day 29 to Day 56 of the study period. The dose volume of administration was maintained according to the weekly body weight of individual animals. The total duration of the study was 61 days (5 days Acclimatization period+28 days Induction of obesity+28 days Main study).
# Individual animal body weights were recorded on the day of receipt on Day 1 and weekly (±1 day) thereafter during the study period.
# Further, after completion of the study period (Day 57) the animals were humanely sacrificed by exposure to excess CO2 in gas chamber and organ weights were noted. The brain, thymus, liver, adrenals, kidneys (paired), spleen, heart and ovaries/testes (paired) from all animals were trimmed off any adherent tissue, as appropriate and weighed wet as soon as possible to avoid drying. While in general, there was no statistically significant difference in organ weights in males and females, organ specific improvements in weight, example for liver in the male group was observable (See TABLE X). […] It may be noted that Behnke, A. R. 1953. Lean body mass. A.M.A. Arch. Int. Med. 91, 585 indicates liver as an index of lean body mass promotion and H. F. Kraybill et al, J ANIM SCI 1954, 13:548-555 indicate that other visceral organs may also be equally predictive of lean body mass promotion. It is quite possible that statistical significance in terms of sustainable increase in organ weights without indications of toxicity may be achieved with a larger sample size (more number of tested animals) over extended testing periods.
smiles,measurement,setting,value
COc1cc(/C=C/C(=O)COC(=O)/C=C/c2ccc(O)c(OC)c2)ccc1O [Calebin A],expression of IL-6 in serum,[1],effective in reducing
same,BODY WEIGHT,"[2]; females, G3 5 mg/kg + High fat diet, Day 1 (obesity induction, before dosing)",22.36 ± 0.65 grams
same,BODY WEIGHT,"[2]; females, G3 5 mg/kg + High fat diet, Day 8 (obesity induction, before dosing)",23.18 ± 0.79 grams
same,BODY WEIGHT,"[2]; females, G3 5 mg/kg + High fat diet, Day 15 (obesity induction, before dosing)",24.36 ± 0.87 grams
same,BODY WEIGHT,"[2]; females, G3 5 mg/kg + High fat diet, Day 22 (obesity induction, before dosing)",25.66 ± 0.48 grams
same,BODY WEIGHT,"[2]; females, G3 5 mg/kg + High fat diet, Day 29 (start of daily dosing)",27.40*^a ± grams
same,BODY WEIGHT,"[2]; females, G3 5 mg/kg + High fat diet, Day 36 (dosing Day 29-56)",28.18**^a ± grams
same,BODY WEIGHT,"[2]; females, G3 5 mg/kg + High fat diet, Day 43 (dosing Day 29-56)","28.46*^a,**^b ± grams"
same,BODY WEIGHT,"[2]; females, G3 5 mg/kg + High fat diet, Day 50 (dosing Day 29-56)",28.20***^b ± grams
same,BODY WEIGHT,"[2]; females, G3 5 mg/kg + High fat diet, Day 56 (dosing Day 29-56)",28.12***^b ± grams
same,BODY WEIGHT,"[2]; females, G4 10 mg/kg + High fat diet, Day 1 (obesity induction, before dosing)",23.16 ± 0.99 grams
same,BODY WEIGHT,"[2]; females, G4 10 mg/kg + High fat diet, Day 8 (obesity induction, before dosing)",24.16 ± 1.29 grams
same,BODY WEIGHT,"[2]; females, G4 10 mg/kg + High fat diet, Day 15 (obesity induction, before dosing)",25.62 ± 1.26 grams
same,BODY WEIGHT,"[2]; females, G4 10 mg/kg + High fat diet, Day 22 (obesity induction, before dosing)",26.76 ± 1.27 grams
same,BODY WEIGHT,"[2]; females, G4 10 mg/kg + High fat diet, Day 29 (start of daily dosing)",28.46***^a ± grams
same,BODY WEIGHT,"[2]; females, G4 10 mg/kg + High fat diet, Day 36 (dosing Day 29-56)",28.64***^a ± grams
same,BODY WEIGHT,"[2]; females, G4 10 mg/kg + High fat diet, Day 43 (dosing Day 29-56)","28.16*^a,***^b ± grams"
same,BODY WEIGHT,"[2]; females, G4 10 mg/kg + High fat diet, Day 50 (dosing Day 29-56)",27.54***^b ± grams
same,BODY WEIGHT,"[2]; females, G4 10 mg/kg + High fat diet, Day 56 (dosing Day 29-56)",27.04***^b ± grams
same,BODY WEIGHT,"[2]; females, G5 20 mg/kg + High fat diet, Day 1 (obesity induction, before dosing)",23.52 ± 1.10 grams
same,BODY WEIGHT,"[2]; females, G5 20 mg/kg + High fat diet, Day 8 (obesity induction, before dosing)",24.66 ± 1.24 grams
same,BODY WEIGHT,"[2]; females, G5 20 mg/kg + High fat diet, Day 15 (obesity induction, before dosing)",26.26 ^a ± 1.05 ^ grams
same,BODY WEIGHT,"[2]; females, G5 20 mg/kg + High fat diet, Day 22 (obesity induction, before dosing)",27.26 ^a ± 1.25 ^ grams
same,BODY WEIGHT,"[2]; females, G5 20 mg/kg + High fat diet, Day 29 (start of daily dosing)",28.74***^a ± grams
same,BODY WEIGHT,"[2]; females, G5 20 mg/kg + High fat diet, Day 36 (dosing Day 29-56)",28.40**^a ± grams
same,BODY WEIGHT,"[2]; females, G5 20 mg/kg + High fat diet, Day 43 (dosing Day 29-56)",27.80***^b ± grams
same,BODY WEIGHT,"[2]; females, G5 20 mg/kg + High fat diet, Day 50 (dosing Day 29-56)",27.44***^b ± grams
same,BODY WEIGHT,"[2]; females, G5 20 mg/kg + High fat diet, Day 56 (dosing Day 29-56)",27.10***^b ± grams
same,effect on body weights of high fat diet induced obese animals,"[2]; male and female C57 animals, 5, 10 and 20 mg/kg body weight",had an effect in decreasing the body weights
same,LIVER WEIGHT,[2]; G3 5 mg/kg + High fat diet,1.41 ± 0.17 g
same,LIVER WEIGHT,[2]; G4 10 mg/kg + High fat diet,1.25 ± 0.17 g
same,LIVER WEIGHT,[2]; G5 20 mg/kg + High fat diet,1.79 ± 0.19 g
same,BODY WEIGHT,"[2]; males, G3 5 mg/kg + High fat diet, Day 1 (obesity induction, before dosing)",25.02 ± 1.45 grams
same,BODY WEIGHT,"[2]; males, G3 5 mg/kg + High fat diet, Day 8 (obesity induction, before dosing)",25.78 ± 1.14 grams
same,BODY WEIGHT,"[2]; males, G3 5 mg/kg + High fat diet, Day 15 (obesity induction, before dosing)",27.68 ± 0.95 grams
same,BODY WEIGHT,"[2]; males, G3 5 mg/kg + High fat diet, Day 22 (obesity induction, before dosing)",29.98**^a ± 1.03 grams
same,BODY WEIGHT,"[2]; males, G3 5 mg/kg + High fat diet, Day 29 (start of daily dosing)",30.92**^a ± grams
same,BODY WEIGHT,"[2]; males, G3 5 mg/kg + High fat diet, Day 36 (dosing Day 29-56)",31.70*^a ± grams
same,BODY WEIGHT,"[2]; males, G3 5 mg/kg + High fat diet, Day 43 (dosing Day 29-56)",30.84***^b ± grams
same,BODY WEIGHT,"[2]; males, G3 5 mg/kg + High fat diet, Day 50 (dosing Day 29-56)",30.04***^b ± grams
same,BODY WEIGHT,"[2]; males, G3 5 mg/kg + High fat diet, Day 56 (dosing Day 29-56)",29.98***^b ± grams
same,BODY WEIGHT,"[2]; males, G4 10 mg/kg + High fat diet, Day 1 (obesity induction, before dosing)",25.28 ± 0.88 grams
same,BODY WEIGHT,"[2]; males, G4 10 mg/kg + High fat diet, Day 8 (obesity induction, before dosing)",25.82 ± 0.91 grams
same,BODY WEIGHT,"[2]; males, G4 10 mg/kg + High fat diet, Day 15 (obesity induction, before dosing)",27.58 ± 0.65 grams
same,BODY WEIGHT,"[2]; males, G4 10 mg/kg + High fat diet, Day 22 (obesity induction, before dosing)",29.92**^a ± 0.97 grams
same,BODY WEIGHT,"[2]; males, G4 10 mg/kg + High fat diet, Day 29 (start of daily dosing)",31.02**^a ± grams
same,BODY WEIGHT,"[2]; males, G4 10 mg/kg + High fat diet, Day 36 (dosing Day 29-56)",31.06*^b ± grams
same,BODY WEIGHT,"[2]; males, G4 10 mg/kg + High fat diet, Day 43 (dosing Day 29-56)",29.80***^b ± grams
same,BODY WEIGHT,"[2]; males, G4 10 mg/kg + High fat diet, Day 50 (dosing Day 29-56)",28.98***^b ± grams
same,BODY WEIGHT,"[2]; males, G4 10 mg/kg + High fat diet, Day 56 (dosing Day 29-56)",28.62***^b ± grams
same,BODY WEIGHT,"[2]; males, G5 20 mg/kg + High fat diet, Day 1 (obesity induction, before dosing)",25.88 ± 1.25 grams
same,BODY WEIGHT,"[2]; males, G5 20 mg/kg + High fat diet, Day 8 (obesity induction, before dosing)",26.66 ± 1.73 grams
same,BODY WEIGHT,"[2]; males, G5 20 mg/kg + High fat diet, Day 15 (obesity induction, before dosing)",28.94*^a ± 1.59^ grams
same,BODY WEIGHT,"[2]; males, G5 20 mg/kg + High fat diet, Day 22 (obesity induction, before dosing)",30.64**^a ± 1.16 grams
same,BODY WEIGHT,"[2]; males, G5 20 mg/kg + High fat diet, Day 29 (start of daily dosing)",31.86***^a ± grams
same,BODY WEIGHT,"[2]; males, G5 20 mg/kg + High fat diet, Day 36 (dosing Day 29-56)",31.48*^b ± grams
same,BODY WEIGHT,"[2]; males, G5 20 mg/kg + High fat diet, Day 43 (dosing Day 29-56)",29.12***^b ± grams
same,BODY WEIGHT,"[2]; males, G5 20 mg/kg + High fat diet, Day 50 (dosing Day 29-56)",27.74***^b ± grams
same,BODY WEIGHT,"[2]; males, G5 20 mg/kg + High fat diet, Day 56 (dosing Day 29-56)",27.54***^b ± grams
